Assay results reported in patent publication US11202821B2, “Glucose oxidase compositions” (VEGANUTRITECH LLP, priority 2016, dated 2021).
Values joined by “and” are separate entries in the source; they are usually repeats but may differ in a detail not shown here. Equal values may be shown once.

Legend:
[1] = Glucose tolerance test on healthy volunteers; format: in vivo, human
Source text: The data is as provided under table 21 and reflects that the sweetener compositions of the present invention are safer to use even for healthy individuals as compared to artificial sweeteners.
Observations of glucose tolerance test on healthy volunteers were made after the consumption of the sweetener composition containing glucose oxidase enzyme, as per the embodiment of the present invention and in comparison, to known artificial sweetener product having artificial sweetener sucralose and bulking agent dextrose monohydrate.

[2] = Calorific value by Bomb calorimeter; format: physicochemical
Protocol: Known sweetener compositions based on artificial sweeteners such as sucralose or Acesulfame K along with natural sugar substitute compositions including stevia, sugar, glucose and sucrose, were compared with the sweetener or the nutraceutical compositions containing glucose oxidase enzyme for their calorific values. The calorific values are determined using Bomb calorimeter.

[3] = Effect on body weight and muscle mass in type 2 diabetic patients; format: in vivo, human; conditions: type 2 diabetic patient, dose 25 gms per day
Protocol: Six type 2 diabetic patients were randomly administered the Glucose oxidase containing sweetener composition as per the embodiment of the present invention for […], 5 patients were administered sugar and compositions containing natural sugar substitute (stevia based) based sweeteners, or artificial sweeteners based on Sucralose or Acem or compositions containing dietary fibres with saccharides, dietary fibres with sugar alcohols and dietary fibres with sugar alcohols and saccharides, the details of which are as set forth in the Table below. One patient was not given any composition. Before the onset of the study (week 0) and after 2 months, weight measurements were taken.

[4] = system: buccal epithelial cells; experiment: Non invasive micronucleus assay for oxidative stress in diabetic individuals; format: in vivo, human; conditions: dose 40 gms (0.005 gms for the drugs)
Source text: Known pharmaceutical/nutraceutical compositions as well as other artificial sweeteners were compared to the pharmaceutical composition including the glucose oxidase enzyme of the invention for controlling oxidative stress in diabetic individuals.
Micronucleus is a small nucleus (also known as erratic or third nucleus), present in the cytoplasm of the cell. Formation of micronuclei indicates oxidative stress and genetic damage. The micronucleus assay using scraped buccal epithelial cells is an easy and non-invasive assay to estimate oxidative stress.
The results of the Non Invasive Micronucleus Assay, using buccal epithelial cells were tabulated as follows: […]

SMILES: O.O=C[C@H](O)[C@@H](O)[C@H](O)[C@H](O)CO [Dextrose monohydrate]
- Blood Sugar After 2 hrs ([1]; 2 hrs after 75 gms in 200 ml of water, individual values, monohydrate): 141 and 149 (3×) and 160 (3×) and 156 (2×) and 170 and 175 and 150 and 145 and 158 and 169 and 154 and 159 and 157 and 164 and 161
- Blood Sugar After 2 hrs, Average/20 respondents ([1]; after 2 hrs, 75 gms in 200 ml of water, average of 20 respondents): dents- 157.1
- Blood Sugar Initial ([1]; before drinking 75 gms in 200 ml of water, individual values, monohydrate): 80 and 79 and 97 and 96 and 100 (2×) and 105 (2×) and 104 (2×) and 86 and 89 and 98 and 102 (2×) and 87 and 95 and 99 and 103 and 93
- Blood Sugar Initial, Average/20 respondents ([1]; initial, average of 20 respondents): dents- 92.2

SMILES: OC[C@H]1OC(O)[C@H](O)[C@@H](O)[C@@H]1O (stereo partly drawn) [Glucose]
- Calories/100 g [2]: 400 Calories/100 g

SMILES: OC[C@H]1O[C@H](O[C@]2(CCl)O[C@H](CCl)[C@@H](O)[C@@H]2O)[C@H](O)[C@@H](O)[C@H]1Cl [Sucralose]
- Glycemic Response ([1]; conclusion in words): respond almost in the same manner as that of Glucose

SMILES: OC[C@H]1O[C@@](CO)(O[C@H]2O[C@H](CO)[C@@H](O)[C@H](O)[C@H]2O)[C@@H](O)[C@@H]1O [Sugar]
- Initial Body weight ([3]; baseline (week 0)): 60 Kgs
- Body weight (after two months) [3]: 62.5 Kgs
- Muscle mass increase in % over three months [3]: No change
- Calories/100 g [2]: 400 Calories/100 g
- Oxidative stress Values (% of cells containing micronuclei) before administration ([4]; baseline): 5.0 % of cells containing micronuclei
- Oxidative stress Values (% of cells containing micronuclei) one month after administration [4]: 7 % of cells containing micronuclei
